Legend:
[1] = test system: cystic fibrosis patients heterozygous for the F508del mutation and a CFTR residual function mutation; assay: Second clinical trial: eight-week, randomized, double-blind, ivacaftor-controlled, parallel-group study in 150 CF patients; assay type: in vivo, human; settings: active comparator treatment period
Description: A second clinical trial was conducted with 150 cystic fibrosis patients aged 12 years and older Who were heterozygous for the F508del mutation and a CFTR residual function mutation. This trial was an eight-week, randomized, double-blind, ivacaftor-controlled, parallel-group study in CF patients. Patients were randomized 1:1 to receive tezacaftor/ivacaftor or ivacaftor following a four-week run in of ivacaftor. The mean ppFEV1 at baseline was 64.3%. The treatment difference between tezacaftor/ivacaftor and ivacaftor-treated patients for absolute change in ppFEV1 (primary endpoint) through Week 8 in the active comparator treatment period was 0.3 percentage points.
Results for tezacaftor/ivacaftor- and ivacaftor-treated patients were similar for absolute change in ppFEV1, relative change in ppFEV1 and CFQ-R Respiratory Domain Score. In the active comparator treatment period, the mean absolute change in ppFEV 1 was 0.5% in the tezacaftor/ivacaftor group and 0.2% in the ivacaftor group; the mean relative change in ppFEV1 was 1.3% in the tezacaftor/ivacaftor group and 0.5% in the ivacaftor group; and the mean absolute change in the pooled CFQ-R respiratory domain score was 0.7 points in the tezacaftor/ivacaftor group and −2.1 points in the ivacaftor group. There was a reduction in sweat chloride in tezacaftor/ivacaftor-treated patients compared to the ivacaftor group (−5.8 mmol/L).

[2] = test system: cystic fibrosis patients with splice and missense mutations; assay: Clinical trial in 248 cystic fibrosis patients with splice and missense (residual function) mutations: placebo, Compound II alone, Compound I and Compound II; assay type: in vivo, human; settings: 100 mg Compound I every 24 hours, 150 mg Compound II every 12 hours
Description: A clinical trial was conducted with 248 cystic fibrosis patients with splice and missense mutations. Mutations were selected for the study based on the clinical phenotype (pancreatic sufficiency), biomarker data (sweat chloride), and in vitro responsiveness to tezacaftor/ivacaftor. The patients were assigned to one of three treatment groups: placebo, Compound II alone, and Compound I and Compound II. […] As shown in.

CC(C)(C)c1cc(C(C)(C)C)c(NC(=O)c2c[nH]c3ccccc3c2=O)cc1O [Compound II, N-(2,4-di-tert-butyl-5-hydroxyphenyl)-4-oxo-1,4-dihydroquinoline-3-carboxamide]
mean absolute change in the pooled CFQ-R respiratory domain score [1]: −2.1 points | mean relative change in ppFEV1 [1]: 0.5% | mean absolute change in ppFEV1 ([1]; after four-week run in of ivacaftor): 0.2% | increase in CFQ-R score ([2]; after 8 weeks of treatment): 9.7 points | increase in ppFEV1 (percent predicted forced expiratory volume in one second) ([2]; average change from baseline after 4 and 8 weeks of treatment): 4.7 percentage points

Reference: US20180280349A1, “METHODS OF TREATING CYSTIC FIBROSIS IN PATIENTS WITH RESIDUAL FUNCTION MUTATIONS” (Vertex Pharmaceuticals Incorporated, priority 2017, published 2018)
